Patent EP2269600A1, “Treatment of sleep disorders using eplivanserin in COPD patients” (Sanofi-Aventis, priority 2009, dated 2011)

Experiments:
[1] = system: patients with chronic (primary) insomnia characterized by sleep maintenance difficulties; assay: Phase 3 studies LTE6217 and LTE6262: patient-reported sleep parameters, 12 weeks, placebo-controlled; assay type: in vivo
Description: (§1) The Phase 3 program of development of eplivanserin in the treatment of patients with chronic (primary) insomnia characterized by sleep maintenance difficulties consisted of 3 randomized, double-blind (DB), placebo-controlled, efficacy and safety studies designed to assess the efficacy of eplivanserin on sleep maintenance either using polysomnography (PSG) recordings (6-week study EFC6220) or patient-reported outcome (12-week studies LTE6217 and LTE6262) collected daily on sleep questionnaires. They were all double-blind (DB), randomized, placebo-controlled studies. In all studies, treatment period was preceded by a one week, placebo run-in period, designed to check selection criteria for insomnia based on patient reported sleep parameters collected on the daily sleep questionnaires (Studies LTE6217, and LTE6262) or based on PSG recordings during two screening nights in a sleep laboratory (Study EFC6220). Treatment period was followed by a placebo run-out period of 2 weeks designed to assess the effect of abrupt treatment discontinuation. Study EFC6220 was designed to measure the pharmacodynamic activity of eplivanserin on sleep maintenance using PSG recordings in a sleep laboratory. Polysomnograms were recorded in standard conditions during 8 hours in bed. Studies LTE6217 and LTE6262 measured the efficacy of eplivanserin in real life conditions of use at home by collecting daily sleep parameters reported by patients through an Interactive Voice Response System (IVRS).

[2] = system: patients with mild to moderate COPD; assay: COPD phase I study: plethysmography; assay type: in vivo
Procedure: (§2) The primary objective of this phase I study was to evaluate the pharmacodynamic (PD) effects of eplivanserin 15 mg single dose versus placebo (P) on respiratory function measured by mean overnight oxygen saturation (SaO2) in patients with mild to moderate COPD. Recorded PD parameters were: • Pulse oximetry continuously recorded overnight, with 02 saturation in %, • Pulmonary function tests (PFTs): spirometry [measuring forced vital capacity (FVC), forced expiratory volume (FEV), peak […] flow rate (PEFR), forced […] flow (FEF)] and plethysmography [evaluating airways resistance and conductance], • Capillary blood gases, • PSG with apnea /hypopnea episodes, sleep global sleep parameters and sleep architecture, • Leeds Sleep Evaluation Questionnaire (LSEQ) and Bond & Lader VAS. Safety and pharmacokinetic parameters were also assessed.
(§3) The study was a single-centre, double-blind, randomized, 2-way crossover, placebo-controlled crossover study with 14 day washout: 15 mg single-dose of eplivanserin (E) vs. placebo (P). Included patients were displaying mild to moderate chronic obstructive pulmonary disease (COPD). The primary end-point was the pulmonary function (02 saturation over the entire night). 28 evaluable patients have been evaluated (COPD severity (FEV1) 50% mild / 50% moderate; Gender: 46.4% M, 53.6% F)

[3] = system: patients with mild to moderate COPD; assay: COPD phase I study: PSG (apnea/hypopnea episodes, sleep parameters); assay type: in vivo; settings: 15 mg single dose
Procedure: as §2, §3

[4] = system: patients with chronic (primary) insomnia characterized by sleep maintenance difficulties; assay: Phase 3 study EFC6220: polysomnography (PSG) recordings, 6 weeks, placebo-controlled; assay type: in vivo
Description: as §1

[5] = system: patients with mild to moderate COPD; assay: COPD phase I study: Leeds Sleep Evaluation Questionnaire and Bond & Lader VAS; assay type: in vivo; settings: 15 mg single dose
Procedure: as §2, §3

[6] = system: patients with mild to moderate COPD; assay: COPD phase I study: safety and tolerability; assay type: in vivo; settings: for safety / tolerability: 15 mg single dose, mild or moderate COPD
Procedure: as §2, §3

[7] = system: patients with mild to moderate COPD; assay: COPD phase I study: overnight pulse oximetry (oxygen saturation); assay type: in vivo
Procedure: as §2, §3

[8] = cited from earlier work
[9] = system: patients with mild to moderate COPD; assay: COPD phase I study: spirometry; assay type: in vivo; settings: Eplivanserin 15 mg single dose minus Placebo
Procedure: as §2, §3

[10] = system: patients with mild to moderate COPD; assay: COPD phase I study: capillary blood gases; assay type: in vivo; settings: 15 mg single dose
Procedure: as §2, §3

[11] = 5 mg/day, after 6 and 12 weeks of treatment

Which results are given for `CN(C)CCO/N=C(/C=C/c1ccc(O)cc1)c1ccccc1F` [Eplivanserin, (1Z, 2E)-1-(2-fluorophenyl)-3-(4-hydroxyphenyl)-prop-2-en-1-one-O-(2-dimethylaminoethyl)oxime]?
effect on sleep maintenance (pr-WASO), onset and persistence ([1]; 5 mg/day): observed from Day 1 and persisted up to 1 year of treatment; mean pr-NAW [1, 11]: reducing; pr-TST [1, 11]: increasing; pr-WASO [1, 11]: consistently and significantly decreasing; Quality of Sleep and Refreshing Quality of Sleep ([1]; after 6 and 12 weeks of treatment): improved; "sleepiness in the morning" and "ability to concentrate" ([1]; compared with placebo, reported by insomniac patients): significantly favorable effect; sleep onset ([1]; human, in vivo): did not affect sleep onset; potential for residual effects (next-day impairment) ([1]; safety analyses): devoid of next-day impairment; airways resistance and conductance in each patient's subgroup (mild, moderate) ([2]; 15 mg single dose vs placebo): no difference; Airways resistance, treatment difference LS mean ([2]; Eplivanserin 15 mg single dose minus Placebo, P-value 0.4880): 0.02 KPa * s/l; Airways conductance, treatment difference LS mean ([2]; Eplivanserin 15 mg single dose minus Placebo, P-value 0.6642): -0.01 1/KPa * s; AHI (apnea hypopnea index) [3]: reduction; LPS (latency to persistent sleep) [3]: no change; TST (total sleep time) [3]: increase; WASO (waketime duration after sleep onset) [3]: reduction; number of awakenings after sleep onset [3]: reduction; Stage 1 ([4]; 5 mg/day compared with placebo): decrease of Stage 1; percentage of time spent in sleep Stages 3&4 (SWS or deep sleep) ([4]; 5 mg/day compared with placebo): increased; PSG-WASO ([4]; Week 3 and Week 6, difference with placebo not statistically significant at Week 6): decreasing PSG-WASO at Week 3 and Week 6; number of brief awakenings (<1 min) ([4]; compared to placebo): decreased; sleep onset (PSG-LPS and pr-SOL) ([4]; eplivanserin 5 mg): did not affect sleep onset; PSG-NAW (LS mean) ([4]; eplivanserin 5 mg, Week 3, p<0.0001): -1.74; pr-NAW ([4]; eplivanserin 5 mg, Week 3 and Week 6): decrease of pr-NAW; PSG-NAW (LS mean) ([4]; eplivanserin 5 mg, Week 6, p<0.0001): -1.82; QoS ([4]; in vivo): improved; REM sleep ([4]; in vivo): not affected; SWS/WASO + Stage 1 index ([4]; in vivo): increase; LSEQ and Bond & Lader VAS post-treatment scores vs baseline [5]: minimally or unaffected; safety / tolerability [6]: well tolerated; safety / tolerability ([6]; listed as eplivanserin): no safety concern; impairment of respiratory function (SaO2%, spirometry, body plethysmography) ([6]; oral single dose 15 mg, in comparison with placebo): no impairment of respiratory function was observed; SaO2 (%) during Time in bed, treatment difference LS mean ([7]; Eplivanserin 15 mg single dose minus Placebo, P-value 0.2499): -0.30%; Mean oxygen saturation over the entire night (mean ± SD) ([7]; eplivanserin 15 mg single dose, finger pulse oximetry): 93.4 % ± 1.66; SaO2 (%) during the sleep stages (stage 1, 2, SWS, REM, wake) ([7]; single dose 15 mg vs placebo): no effect; half-life time ([8]; average value): 50 h; absorbed ([8]; human, in vivo): > 70%; Forced vital capacity, treatment difference LS mean ([9]; P-value 0.1411): -0.12 L; Forced expiratory volume, treatment difference LS mean ([9]; P-value 0.5289): -0.03 L; Peak expiratory flow, treatment difference LS mean ([9]; P-value 0.6683): -0.05 L/S; Capillary blood gases (pH, oxygen partial pressure) [10]: minimally or unaffected
